Measurements as given in article PMC6720901, “Psoromic Acid, a Lichen-Derived Molecule, Inhibits the Replication of HSV-1 and HSV-2, and Inactivates HSV-1 DNA Polymerase: Shedding Light on Antiherpetic Properties” (Molecules, 2019).
Where two headings read alike, the source gives them in different places.

Experiments:
[1] = Cytotoxicity on Vero cells by neutral red dye-uptake assay; assay type: cell-based; settings: African green monkey, Vero cell monolayers, neutral red dye uptake (Table 1)
Protocol: The cytotoxic effect of standard PA (purity >98%; kindly obtained from University of Chemistry and Technology Prague, Prague, Czech Republic), PA in combination with ACV (Sigma-Aldrich, Berlin, Germany) as well as standard ACV on Vero cells was assessed using the neutral red dye-uptake assay as previously described with slight modification. Briefly, the test compounds were dissolved in 0.2% dimethyl sulfoxide (DMSO). Further, stock solutions were prepared in deionized water and sterilized at a concentration of 620 μM. Vero cell monolayers cultivated in 96-well microtiter plates with two-fold serial dilutions of the test compounds were incubated for 48 h at 37°C in 5% CO2. After incubation, the morphological alterations of the treated cells were assessed using an inverted optical microscope (Leitz, Wetzlar, Germany) and the maximum non-toxic concentrations (MNTC) were determined. The concentrations of test substances that are necessary to decrease the cell viability by 50% (CC50) were assessed as compared with the untreated control cells. In order to acquire statistically relevant data for final evaluation, the cytotoxicity of test compounds was measured in at least three independent experiments conducted in duplicate.

[2] = system: HSV-1 strain KOS; assay: Anti-HSV-1 plaque reduction assay in infected Vero cells; assay type: cell-based, herpes simplex virus type 1 (HSV-1); settings: for IC50: 72 h; for SI (CC50/IC50): selectivity index, Vero CC50 / HSV-1 IC50
Protocol: Vero cells were infected with HSV-1 strain KOS (an ACV-sensitive strain) obtained from MUH, Prague, Czech Republic and propagated in Vero cells. Viral stocks were then titrated based on plaque forming unit (PFU) count by plaque assay as previously described. Viral stocks were stored at −80^◦C for further use.
The inhibitory activity against the replication of HSV-1 was evaluated using a plaque reduction assay as previously described. ACV was used as a reference drug. Briefly, cell monolayers were infected with 100 PFU of HSV-1 in MEM containing 1.5% carboxymethyl cellulose (CMC, Sigma-Aldrich, Berlin, Germany) in the presence or absence of test compounds at different concentrations. Afterward, the cells were subjected to incubation for 72 h at 37 °C, then fixed and stained using naphthol blue-black (Sigma-Aldrich, Berlin, Germany). Subsequently, the plaques were counted. IC50 values (concentrations of test compounds required to decrease the number of plaques by 50%) were determined as compared with untreated control cells. A selectivity index (SI) value was calculated as the ratio CC50/IC50.

[3] = molecular target: T1, HSV-1 DNA polymerase (Human herpesvirus 1, UniProt P04292); assay: Radiolabeled nucleotide-based HSV-1 DNA polymerase inhibition assay; assay type: biochemical; settings: for type of inhibition: ascertained with Cheng–Prusoff equation; for IC50: 37 °C, 30 min; for Ki: calculated by Cheng–Prusoff equation
T1 construct: HSV-1 DNA polymerase was extracted from HSV-1-infected Vero cells; made in house; host or cells: Vero cells infected with HSV-1 (KOS strain); virus-encoded native enzyme, purified on DEAE-cellulose and phosphate cellulose columns
T1 sequence (P04292 whole entry): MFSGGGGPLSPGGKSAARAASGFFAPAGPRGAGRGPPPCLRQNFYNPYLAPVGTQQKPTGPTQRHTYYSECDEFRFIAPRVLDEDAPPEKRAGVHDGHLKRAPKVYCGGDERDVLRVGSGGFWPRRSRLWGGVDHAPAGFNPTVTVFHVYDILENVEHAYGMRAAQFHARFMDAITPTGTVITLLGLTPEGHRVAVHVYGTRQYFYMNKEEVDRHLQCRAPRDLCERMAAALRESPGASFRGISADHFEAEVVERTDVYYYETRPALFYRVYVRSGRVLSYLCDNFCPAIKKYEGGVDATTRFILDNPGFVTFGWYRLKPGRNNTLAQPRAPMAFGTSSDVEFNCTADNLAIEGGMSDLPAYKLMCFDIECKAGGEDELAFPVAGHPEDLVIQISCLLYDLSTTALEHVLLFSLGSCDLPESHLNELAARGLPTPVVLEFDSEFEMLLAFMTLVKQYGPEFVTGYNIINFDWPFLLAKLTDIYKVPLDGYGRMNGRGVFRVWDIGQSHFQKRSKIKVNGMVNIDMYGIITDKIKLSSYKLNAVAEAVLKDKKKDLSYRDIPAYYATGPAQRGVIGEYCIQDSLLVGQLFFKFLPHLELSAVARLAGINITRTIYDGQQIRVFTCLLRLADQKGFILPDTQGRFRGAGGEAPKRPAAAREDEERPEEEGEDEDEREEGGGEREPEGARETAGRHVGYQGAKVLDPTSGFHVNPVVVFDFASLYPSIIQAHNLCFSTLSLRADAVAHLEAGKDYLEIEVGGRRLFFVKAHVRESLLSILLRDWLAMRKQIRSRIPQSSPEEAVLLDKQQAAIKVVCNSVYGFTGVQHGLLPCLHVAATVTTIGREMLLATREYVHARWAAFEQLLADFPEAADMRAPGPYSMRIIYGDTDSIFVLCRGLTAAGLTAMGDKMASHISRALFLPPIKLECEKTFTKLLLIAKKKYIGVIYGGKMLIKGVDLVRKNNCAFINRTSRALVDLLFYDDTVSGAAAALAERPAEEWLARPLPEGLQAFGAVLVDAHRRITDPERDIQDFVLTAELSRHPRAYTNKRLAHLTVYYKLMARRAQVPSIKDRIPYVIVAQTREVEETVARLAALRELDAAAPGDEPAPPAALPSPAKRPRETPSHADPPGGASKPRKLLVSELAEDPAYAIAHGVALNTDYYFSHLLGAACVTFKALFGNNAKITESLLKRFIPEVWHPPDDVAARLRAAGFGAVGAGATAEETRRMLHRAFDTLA
Protocol: HSV-1 DNA polymerase was extracted from HSV-1-infected Vero cells following the procedure as previously designated. Briefly, Vero cells were infected with HSV-1 (KOS strain) at a multiplicity of infection (MOI) equal to 5.0 for 12 h. Afterward, the infected cells were lysed with a buffer containing 0.25 M potassium phosphate (pH = 7.5), 10 mM 2-mercaptoethanol (2-ME), 1mM EDTA, 0.5% Triton X-100, 0.5 mM phenylmethane sulfonylfluoride (PMSF), and 20% glycerol, and subsequently sonicated and centrifuged at 10,000× g for 10 min at 4 °C. The resulting supernatant was additionally centrifuged at 100,000× g for 90 min at 4 °C and the supernatant was dialyzed against 10 mM potassium phosphate (pH = 7.5) with 10 mM 2-ME, 1mM EDTA, and 20% glycerol. Then, the obtained material was eluted in two ion-exchange chromatography columns (DEAE-cellulose and phosphate cellulose) (Sigma-Aldrich, Prague, Czech Republic) supplemented with potassium phosphate ([…]) as previously described.
Extracted HSV-1 DNA polymerase was evaluated for its purity and possible contamination with cellular enzymes such as type B DNA polymerase (α and δ polymerases) using polyclonal antibodies raised against these cellular enzymes following the procedure as previously described. The confirmation of the purity of HSV-1 DNA polymerase was achieved by using a kinetic assay in the presence or absence of ammonium sulfate (100 mM; an inhibitor of possible contaminant cellular polymerases) following the previously reported protocol.
A radiolabeled nucleotide-based assay was used to evaluate the inhibitory properties of PA along with the standard drugs aphidicolin (a known competitive inhibitor of HSV-1 DNA polymerase with respect to dTTP incorporation; purchased from Sigma-Aldrich, Prague, Czech Republic with purity ≥98%) and ACV triphosphate (ACV-TP) (a known competitive inhibitor of HSV-1 DNA polymerase with respect to dGTP incorporation; obtained from Sierra Bioresearch (Tucson, AZ, USA) with purity >98%) against HSV-1 DNA polymerase based on the incorporation of dTTP as a substrate with some modifications. Briefly, the enzyme assay was performed following the first-order kinetics conditions, where the enzymatic reaction initiated by pre-incubating 3 U/mL of HSV-1 DNA polymerase with a mixture containing 50 mM Tris-HCl (pH = 8), MgCl2 (8 mM), DTT (0.5 mM), bovine serum albumin (0.5 µg/mL), ammonium sulfate (100 mM; an inhibitor of possible contaminant cellular polymerases), 100 µM of each nucleotide (dATP, dGTP, dCTP, and [^3H]-dTTP—0.5 µCi/nmol) (obtained from MUH, Prague, Czech Republic) and activated salmon-sperm DNA (12 µg/mL). […] [^3H]-dGTP—0.5 µCi/nmol (obtained from MUH, Prague, Czech Republic) was used when the enzymatic assay was performed with ACV-TP.
The obtained mixture was further incubated with the test compounds (at concentrations ranging from 0.1 to 3 µM) at 37 °C for 30 min and afterward, the reaction was stopped by adding trichloroacetic acid (TCA; 10%). The resulting radioactivity was adsorbed over GF/C fiberglass membranes (Whatman; Sigma-Aldrich, Berlin, Germany) and counted by liquid scintillation (Tri-Carb 2600, Packard Inc., Downers Grove, IL, USA). All measurements were conducted in triplicate and IC50 values were calculated by nonlinear regression. Ki values (inhibition constant; concentration required to produce half maximum inhibition) were calculated using the Cheng–Prusoff equation as previously described.

Row | Compound | CC50 at 48 h [1] | IC50 ([2]; Human alphaherpesvirus 1, HSV-1 replication, plaque reduction, Vero cells, read-out: IC50) | SI (CC50/IC50) [2] | type of inhibition [3] | IC50 ([3]; with respect to dGTP incorporation ([3H]-dGTP)) | Ki ([3]; with respect to dGTP incorporation) | IC50 ([2]; Human alphaherpesvirus 1, Vero) | IC50 ([3]; with respect to dTTP incorporation ([3H]-dTTP)) | Ki ([3]; with respect to dTTP incorporation)
1 | Nc1nc2c(ncn2COCCO)c(=O)[nH]1 [ACV, acyclovir] | > 310000 nM | 2600 ± 380 nM | >119.2 | – | – | – | – | – | –
2 | Nc1nc2c(ncn2COCCOP(=O)(O)OP(=O)(O)OP(=O)(O)O)c(=O)[nH]1 [ACV-TP, acyclovir triphosphate] | – | – | – | competitive inhibitors | 900 ± 630 nM | 500 ± 340 nM | – | – | –
3 | COc1cc(C(=O)O)c2c(c1C)OC(=O)c1c(C)cc(O)c(C=O)c1O2 [PA, Psoromic acid] | > 310000 nM | – | >163.2 | competitive inhibitors | – | – | 1900 ± 420 nM | 700 ± 510 nM | 300 ± 420 nM
